The values that follow come from patent US20090069565A1, “NEW INDOLE DERIVATIVES AS FACTOR XA INHIBITORS” (priority 2001, published 2009).

Sequence of human factor Xa (P00742 235-488 limits assumed): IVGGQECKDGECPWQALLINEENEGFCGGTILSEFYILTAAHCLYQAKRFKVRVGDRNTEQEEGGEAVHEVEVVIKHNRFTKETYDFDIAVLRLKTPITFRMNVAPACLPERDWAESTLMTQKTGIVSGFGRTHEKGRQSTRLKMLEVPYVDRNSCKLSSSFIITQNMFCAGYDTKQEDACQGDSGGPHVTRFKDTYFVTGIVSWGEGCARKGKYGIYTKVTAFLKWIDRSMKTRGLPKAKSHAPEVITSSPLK
Sequence of human factor Xa (P00742 41-179 partner limits assumed): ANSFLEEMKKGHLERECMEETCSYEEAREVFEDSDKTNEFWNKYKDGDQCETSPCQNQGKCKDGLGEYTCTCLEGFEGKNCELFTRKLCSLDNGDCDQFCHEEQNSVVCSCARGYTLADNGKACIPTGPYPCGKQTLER

The first assay concerns the target human factor Xa (Homo sapiens, UniProt P00742). Briefly: Factor Xa assay (chromogenic, substrate S-2765).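 Also: purified enzyme preincubated with inhibitor for 10 min before substrate addition, final reaction volume 100 µl.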
Conditions: not given
It is filed as biochemical.
As to `CC(C)N1CCC(NC(=O)c2c(C#N)c3ccccc3n2Cc2cc(-c3ccc(Cl)s3)on2)CC1` [Example 160, 1-[5-(5-Chloro-thiophen-2-yl)-isoxazol-3-ylmethyl]-3-cyano-1H-indole-2-carboxylic acid (1-isopropyl-piperidin-4-yl)-amide], the Ki (as a rule, a measure of affinity in units of concentration, obtained from inhibition or displacement) turned out to be 0.1 nM.

Staying with this assay, now noted: inhibition constant for factor Xa; purified enzyme 0.5 nM, substrate S-2765 140 μM, 25° C., pH 7.8; Ki=IC50/{1+(substrate concentration/Km)}; read-out: Ki(FXa).
With `O=C(NC1CCN(c2ccncc2)CC1)c1cc2ccccc2n1Cc1cc(-c2ccc(Cl)s2)on1` [Example 28, 1-[5-(5-Chloro-thiophen-2-yl)-isoxazol-3-ylmethyl]-1H-indole-2-carboxylic acid (3,4,5,6-tetrahydro-2H-[1,4′]bipyridinyl-4-yl)-amide], the Ki is 14 nM.

Turning to `O=C(c1cc2ccccc2n1Cc1cc(-c2ccc(Cl)s2)on1)N1CCC(Nc2ccncc2)CC1` [Example 31, {1-[5-(5-Chloro-thiophen-2-yl)-isoxazol-3-ylmethyl]-1H-indol-2-yl}-[4-(pyridin-4-ylamino)-piperidin-1-yl]-methanone], the Ki was 18 nM.

In the case of `CCN1CCC(NC(=O)c2cc3ccccc3n2Cc2cc(-c3ccc(Cl)s3)on2)CC1` [Example 36, 1-[5-(5-Chloro-thiophen-2-yl)-isoxazol-3-ylmethyl]-1H-indole-2-carboxylic acid (1-ethyl-piperidin-4-yl)-amide], the Ki turned out to be 18 nM.

Consider `O=C(NCC1CCN(c2ccncc2)CC1)c1cc2ccccc2n1Cc1cc(-c2ccc(Cl)s2)on1` [Example 47, 1-[5-(5-Chloro-thiophen-2-yl)-isoxazol-3-ylmethyl]-1H-indole-2-carboxylic acid (3,4,5,6-tetrahydro-2H-[1,4′]bipyridinyl-4-ylmethyl)-amide], for which the Ki stood at 64 nM.

For the compound `O=C(NC1CCN(C2CC2)CC1)c1cc2ccccc2n1Cc1cc(-c2ccc(Cl)s2)on1` [Example 48, 1-[5-(5-Chloro-thiophen-2-yl)-isoxazol-3-ylmethyl]-1H-indole-2-carboxylic acid (1-cyclopropyl-piperidin-4-yl)-amide], the Ki turned out to be 27 nM.

On to `CC(C)N1CCC(NC(=O)c2cc3ccccc3n2Cc2cc3ccc(Cl)cc3s2)CC1` [Example 119, 1-(6-Chloro-benzo[b]thiophen-2-ylmethyl)-1H-indole-2-carboxylic acid (1-isopropyl-piperidin-4-yl)-amide], for which the Ki turned out to be 40 nM.

Turning to `CC(C)N1CCC(NC(=O)c2cc3ccccc3n2Cc2nnc(-c3ccc(Cl)s3)s2)CC1` [Example 120, 1-[5-(5-Chloro-thiophen-2-yl)-[1,3,4]thiadiazol-2-ylmethyl]-1H-indole-2-carboxylic acid (1-isopropyl-piperidin-4-yl)-amide], the Ki is 4 nM.

Regarding `CC(C)N1CCC(NC(=O)c2cc3ccccc3n2Cc2cc(-c3ccc(Cl)s3)no2)CC1` [Example 121, 1-[3-(5-Chloro-thiophen-2-yl)-isoxazol-5-ylmethyl]-1H-indole-2-carboxylic acid (1-isopropyl-piperidin-4-yl)-amide], the Ki came out at 3 nM.

`CC(C)N1CCC(NC(=O)c2c(Cl)c3ccccc3n2Cc2cc(-c3ccc(Cl)s3)on2)CC1` [Example 122, 3-Chloro-1-[5-(5-chloro-thiophen-2-yl)-isoxazol-3-ylmethyl]-1H-indole-2-carboxylic acid (1-isopropyl-piperidin-4-yl)-amide]: the Ki was 2 nM.

Consider `CC(C)N1CCC(NC(=O)c2c(Br)c3ccccc3n2Cc2cc(-c3ccc(Cl)s3)on2)CC1` [Example 123, 3-Bromo-1-[5-(5-chloro-thiophen-2-yl)-isoxazol-3-ylmethyl]-1H-indole-2-carboxylic acid (1-isopropyl-piperidin-4-yl)-amide], for which the Ki came out at 2 nM.

For the compound `CC(C)N1CCC(NC(=O)c2c(F)c3ccccc3n2Cc2cc(-c3ccc(Cl)s3)on2)CC1` [Example 159, 3-Fluoro-1-[5-(5-chloro-thiophen-2-yl)-isoxazol-3-ylmethyl]-1H-indole-2-carboxylic acid (1-isopropyl-piperidin-4-yl)-amide], the Ki was 2 nM.

The same assay, now with this note: read-out: Ki(FXa).
As for `Cc1cccc2cc(C(=O)NC3CCN(c4ccncc4)CC3)n(Cc3cc(-c4ccc(Cl)s4)on3)c12` [Example 29, 1-[5-(5-Chloro-thiophen-2-yl)-isoxazol-3-ylmethyl]-7-methyl-1H-indole-2-carboxylic acid (3,4,5,6-tetrahydro-2H-[1,4′]bipyridinyl-4-yl)-amide], the Ki was found to be 19 nM.

In the case of `O=C(NC1CCN(c2ccncc2)CC1)c1cc2cc([N+](=O)[O-])ccc2n1Cc1cc(-c2ccc(Cl)s2)on1` [Example 30, 1-[5-(5-Chloro-thiophen-2-yl)-isoxazol-3-ylmethyl]-5-nitro-1H-indole-2-carboxylic acid (3,4,5,6-tetrahydro-2H-[1,4′]bipyridinyl-4-yl)-amide], the Ki worked out at 25 nM.

In the case of `O=C(c1cc2cc([N+](=O)[O-])ccc2n1Cc1cc(-c2ccc(Cl)s2)on1)N1CCC(Nc2ccncc2)CC1` [Example 32, {1-[5-(5-Chloro-thiophen-2-yl)-isoxazol-3-ylmethyl]-5-nitro-1H-indol-2-yl}-[4-(pyridin-4-ylamino)-piperidin-1-yl]-methanone], the Ki turned out to be 37 nM.

As for `Cc1cccc2cc(C(=O)N3CCC(Nc4ccncc4)CC3)n(Cc3cc(-c4ccc(Cl)s4)on3)c12` [Example 33, {1-[5-(5-Chloro-thiophen-2-yl)-isoxazol-3-ylmethyl]-7-methyl-1H-indol-2-yl}-[4-(pyridin-4-ylamino)-piperidin-1-yl]-methanone], the Ki was found to be 11 nM.

For `Cc1cccc2cc(C(=O)N3CCC(NC(C)C)CC3)n(Cc3cc(-c4ccc(Cl)s4)on3)c12` [Example 35, {1-[5-(5-Chloro-thiophen-2-yl)-isoxazol-3-ylmethyl]-7-methyl-1H-indol-2-yl}-(4-isopropylamino-piperidin-1-yl)-methanone], the Ki is 502 nM.

In the case of `CCN1CCC(NC(=O)c2cc3cccc(C)c3n2Cc2cc(-c3ccc(Cl)s3)on2)CC1` [Example 37, 1-[5-(5-Chloro-thiophen-2-yl)-isoxazol-3-ylmethyl]-7-methyl-1H-indole-2-carboxylic acid (1-ethyl-piperidin-4-yl)-amide], the Ki was determined as 3 nM.

Consider `O=C(c1cc2ccccc2n1Cc1cc(-c2ccc(Cl)s2)on1)N1CCC(N2CCCC2)CC1` [Example 38, {1-[5-(5-Chloro-thiophen-2-yl)-isoxazol-3-ylmethyl]-1H-indol-2-yl}-(4-pyrrolidin-1-yl-piperidin-1-yl)-methanone], for which the Ki stood at 701 nM.

On to `CN1CCC(N2CCN(C(=O)c3cc4ccccc4n3Cc3cc(-c4ccc(Cl)s4)on3)CC2)CC1` [Example 39, {1-[5-(5-Chloro-thiophen-2-yl)-isoxazol-3-ylmethyl]-1H-indol-2-yl}-[4-(1-methyl-piperidin-4-yl)-piperazin-1-yl]-methanone], for which the Ki turned out to be 2000 nM.

Turning to `O=C(NCC1CC(c2ccncc2)=NO1)c1cc2ccccc2n1Cc1cc(-c2ccc(Cl)s2)on1` (centres unmarked) [Example 41, 1-[5-(5-Chloro-thiophen-2-yl)-isoxazol-3-ylmethyl]-1H-indole-2-carboxylic acid (3-pyridin-4-yl-4,5-dihydro-isoxazol-5-ylmethyl)-amide], the Ki is 1030 nM.

For `O=C(c1cc2ccccc2n1Cc1cc(-c2ccc(Cl)s2)on1)N1CCN(Cc2ccncc2)CC1` [Example 43, {1-[5-(5-Chloro-thiophen-2-yl)-isoxazol-3-ylmethyl]-1H-indol-2-yl}-(4-pyridin-4-ylmethyl-piperazin-1-yl)-methanone], the Ki worked out at 504 nM.

As to `COc1cccc(Cn2c(C(=O)NCC3CCN(c4ccncc4)CC3)cc3ccccc32)c1` [Example 55], the inhibition constant Ki was 1700 nM.

In the case of `COc1cccc(Cn2c(C(=O)NC3CCN(C(C)C)CC3)cc3c(OC)cccc32)c1` [Example 66, 4-Methoxy-1-(3-methoxy-benzyl)-1H-indole-2-carboxylic acid (1-isopropyl-piperidin-4-yl)-amide], the Ki was found to be 43 nM.

For `COc1cccc(Cn2c(C(=O)NC3CCN(C(C)C)CC3)cc3cc(Cl)ccc32)c1` [Example 67, 5-Chloro-1-(3-methoxy-benzyl)-1H-indole-2-carboxylic acid (1-isopropyl-piperidin-4-yl)-amide], the Ki is 187 nM.

On to `COc1cccc(Cn2c(C(=O)NC3CCN(C(C)C)CC3)cc3cc(C)ccc32)c1` [Example 69, 1-(3-Methoxy-benzyl)-5-methyl-1H-indole-2-carboxylic acid (1-isopropyl-piperidin-4-yl)-amide], for which the Ki stood at 159 nM.

In the case of `COc1cccc(Cn2c(C(=O)NC3CCN(C(C)C)CC3)cc3cc(OCc4ccccc4)ccc32)c1` [Example 70], the Ki amounted to 114 nM.

Consider `COc1cccc(Cn2c(C(=O)NC3CCN(C(C)C)CC3)cc3cc([N+](=O)[O-])ccc32)c1` [Example 71, 1-(3-Methoxy-benzyl)-5-nitro-1H-indole-2-carboxylic acid (1-isopropyl-piperidin-4-yl)-amide], for which the Ki is 277 nM.

`COc1cccc(Cn2c(C(=O)NC3CCN(C(C)C)CC3)cc3cc(OC)ccc32)c1` [Example 72, 5-Methoxy-1-(3-methoxy-benzyl)-1H-indole-2-carboxylic acid (1-isopropyl-piperidin-4-yl)-amide]: the Ki came out at 167 nM.

Consider `CC(C)N1CCC(NC(=O)c2cc3ccccc3n2Cc2ccc(OC(F)(F)F)cc2)CC1` [Example 146, 1-(4-Trifluoromethoxy-benzyl)-1H-indole-2-carboxylic acid (1-isopropyl-piperidin-4-yl)-amide], for which the Ki was found to be 440 nM.

On to `CC(C)N1CCC(NC(=O)c2cc3ccccc3n2Cc2ccccc2Cl)CC1` [Example 148, 1-(2-Chloro-benzyl)-1H-indole-2-carboxylic acid (1-isopropyl-piperidin-4-yl)-amide], for which the Ki is 1930 nM.

`CC(C)N1CCC(NC(=O)c2cc3ccccc3n2Cc2cc(Cl)cc(Cl)c2)CC1` [Example 157, 1-(3,5-Dichloro-benzyl)-1H-indole-2-carboxylic acid (1-isopropyl-piperidin-4-yl)-amide]: the Ki is 686 nM.
